Consider two molecules from patent publication US20080009545A1, “Anticancer agents” (The Ohio State University Research Foundation, priority 2006, published 2008).

The subject of assay [1] is PC-3 cells. The experiment in a line: Apoptosis detection in PC-3 cells (cell death ELISA, cytochrome c release, PARP cleavage). Type of assay: cell-based, human. The conditions noted are these: 24 h, serum-free medium. On the procedure: Apoptosis detection by ELISA—Induction of apoptosis was assessed with a Cell Death Detection ELISA kit (Roche Diagnostics) by following the manufacturer's instruction. This test is based on the quantitative determination of cytoplasmic histone-associated DNA fragments in the form of mononucleosomes and oligonucleosomes after induced apoptotic death. In brief, 5×10^6 cells were cultured in a T-25 flask in 10% FBS-containing medium for 24 h, and were treated with the test agents at various concentrations in serum-free medium for 24 hours. Both floating and adherent cells were collected; cell lysates equivalent to 5×10^5 cells were used in the ELISA.
Western blot analysis of cytochrome c release into the cytoplasm—Cytosolic-specific, mitochondria-free lysates were prepared according to an established procedure (18). In brief, after individual treatments for 24 h, both the incubation medium and adherent cells in T-75 flasks were collected and centrifuged at 600×g for 5 min. […] Bands were transferred to nitrocellulose membranes and analyzed by immunoblotting with anti-cytochrome c antibodies as described below. […]
(In an ELISA, binding on a coated surface is turned into a signal by an enzyme label.)

Assay [2] has as its target Bcl-xL (Homo sapiens, UniProt Q07817). Nature of the assay: Competitive fluorescence polarization assay, Bak BH3 peptide binding to Bcl-xL. As to the method:
Competitive fluorescence polarization assay—The binding affinity of the test agent to Bcl-XL was analyzed by a competitive fluorescence polarization assay in which the ability of the agent to displace the binding of a Bak BH3-domain peptide to either Bcl-2 or Bcl-XL was determined. Flu-BakBH3, a Bak-BH3 peptide labeled at the NH2 terminus with fluorescein, was purchased from Genemed Synthesis (San Francisco, Calif.). COOH-terminal-truncated, His-tagged Bcl-XL was purchased from EMD Biosciences (San Diego, Calif.) and soluble glutathione S-transferase-fused Bcl-2 was obtained from Santa Cruz Biotechnology. The binding analysis was carried out in a dual-path length quartz cell with readings taken at […] at room temperature using a luminescence spectrometer according to an established procedure (19).
Determination of IC50 values—Data from cell viability and fluorescence polarization assays were analyzed by using the CalcuSyn software (Biosoft, Ferguson, Mo.) to determine IC50 values, in which the calculation was based on the medium-effect equation [i.e., log(fa/fu)=m log(D)−m log(Dm), where fa and fu denote fraction affected and unaffected, respectively; m represents the Hill-type coefficient signifying the sigmoidicity of the dose-effect curve; and D and Dm are the dose used and IC50, respectively.
A general note: In fluorescence polarisation assays a small probe gives low polarisation when free and higher when bound to something large.

The target in assay [3] is T1, Bcl-xL/Bak interactions (Homo sapiens, UniProt Q07817).
T1 construct: the endogenous counterpart in PC-3 cells; endogenous in cells; host or cells: PC-3 cells
T1 sequence (Q07817 whole entry): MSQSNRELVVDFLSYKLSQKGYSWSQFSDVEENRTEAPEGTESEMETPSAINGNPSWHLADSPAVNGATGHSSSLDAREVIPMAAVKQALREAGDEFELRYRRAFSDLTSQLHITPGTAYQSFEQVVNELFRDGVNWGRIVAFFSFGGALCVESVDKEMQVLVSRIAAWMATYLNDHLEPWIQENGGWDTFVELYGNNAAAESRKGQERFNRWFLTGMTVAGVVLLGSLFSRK
Nature of the assay: Co-immunoprecipitation of Bcl-xL/Bak in PC-3 cells. It counts as cell-based. On the procedure:
Immunoblotting—Cells were seeded in 10% FBS-containing RPMI-1640 medium for 24 h and treated with various agents as aforementioned. After individual treatments for 24 h, the adherent cells in T-25 or T-75 flasks were scraped, combined with the medium, and centrifuged at 2200 rpm for 10 min. The […] were recovered, placed on ice, and triturated with 20 to 50 μL of a chilled lysis buffer (M-PER Mammalian Protein Extraction Reagent; Pierce, Rockford, Ill.), to which was added 1% protease inhibitor cocktail (set III; EMD Biosciences, Inc., San Diego, Calif.). After a 30-min incubation on ice, the mixture was centrifuged at 16,100×g for 3 min. […]
Co-immunoprecipitation—PC3 cells treated with 40 μM α-tocopheryl succinate or 10 μM TS-1 for 24 h were scraped off the flask, transferred into centrifuge tubes, and centrifuged at 2200 rpm for 10 min to pellet the cells. […] Equal amounts of proteins from these lysates, as determined by the Bradford assay, were mixed with anti-Bcl-2 or anti Bcl-XL antibodies in an orbital shaker at 23° C. for 2 h, followed by 100 μL of protein A-agarose bead slurry at 4° C. for 12 h. […]

In general, IC50 refers to the point on the concentration scale where inhibition reaches its midpoint.

Sequence of Bcl-xL (Q07817 1-212 limits assumed): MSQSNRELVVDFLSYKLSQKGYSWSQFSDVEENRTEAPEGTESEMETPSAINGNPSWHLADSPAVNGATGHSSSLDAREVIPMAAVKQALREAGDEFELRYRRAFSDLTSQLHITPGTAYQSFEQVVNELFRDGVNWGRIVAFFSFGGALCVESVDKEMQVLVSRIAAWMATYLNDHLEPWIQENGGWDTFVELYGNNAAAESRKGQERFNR

With `Cc1c(C)c2c(c(C)c1OC(=O)CCC(=O)O)CCC(C)(CCCC(C)CCCC(C)C)O2` (stereo not drawn) [TS-1, succinic acid mono-[2-(4,8-dimethyl-nonyl)-2,5,7,8-tetramethyl-chroman-6-yl]ester], in assay [1], the apoptotic death entry was “evidenced by DNA fragmentation, cytochrome c release, and PARP cleavage”. Moreover, in assay [2], the “difference in IC50 between TS-1 and α-tocopheryl succinate in blocking Bak peptide binding to Bcl-xL” value was found to be 3 fold. Also, the “intracellular binding of Bak to Bcl-xL” value in assay [3] (10 μM) is recorded as “abolished”.

Consider `Cc1c(C)c2c(c(C)c1OC(=O)CCC(=O)O)CC[C@@](C)(CCC[C@H](C)CCC[C@H](C)CCCC(C)C)O2` [α-tocopheryl succinate, reference compound], for which the apoptotic death entry in assay [1] is “evidenced by DNA fragmentation, cytochrome c release, and PARP cleavage”. Further, the IC50 in assay [2] (fluorescence polarization, Flu-BakBH3, read-out: IC50, disruption of BH3 domain-mediated interactions (Bak BH3 peptide) with Bcl-xL) turned out to be 26 ± 2 µM. For the same molecule, the “level of Bak associated with Bcl-xL” value in assay [3] (40 μM, 12 h, vs DMSO control) is on record as “significantly reduced”.
